The experiment concerns the target T1, Programmed cell death protein 4 (Homo sapiens, UniProt Q53EL6).
T1 sequence (Q53EL6 whole entry): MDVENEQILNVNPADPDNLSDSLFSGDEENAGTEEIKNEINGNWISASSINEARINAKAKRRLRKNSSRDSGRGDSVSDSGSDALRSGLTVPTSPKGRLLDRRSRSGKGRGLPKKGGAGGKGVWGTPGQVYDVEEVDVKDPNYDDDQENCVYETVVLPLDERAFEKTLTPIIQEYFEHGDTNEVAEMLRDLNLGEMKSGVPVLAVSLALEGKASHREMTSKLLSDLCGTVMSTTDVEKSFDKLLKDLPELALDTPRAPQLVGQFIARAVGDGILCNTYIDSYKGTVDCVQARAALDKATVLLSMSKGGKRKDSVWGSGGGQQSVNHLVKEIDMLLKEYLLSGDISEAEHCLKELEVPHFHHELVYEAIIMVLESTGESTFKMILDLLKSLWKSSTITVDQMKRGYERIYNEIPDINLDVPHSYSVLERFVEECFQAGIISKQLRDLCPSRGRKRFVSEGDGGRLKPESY
As to the kind of experiment: Stabilization of Pdcd4 expressed in human HEK293 cells assessed as inhibition of TPA-induced degradation by luciferase reporter assay. On the technique in general: Reporter assays use an easily measured gene product as a stand-in for the process of interest.

For orientation: IC50 means the point on the concentration scale where inhibition reaches its midpoint.

In the case of `Nc1ncnc2c1ccn2[C@@H]1O[C@H](CO)[C@@H](O)[C@H]1O` ['2-(4-AMINO-PYRROLO[2,3-D]PYRIMIDIN-7-YL)-5-HYDROXYMETHYL-TETRAHYDRO-FURAN-3,4-DIOL], the IC50 was found to be 880 nM.

For the origin of these results see BindingDB's records for doi:10.1021/np200603g (Yunnan University, 2011).
